According to patent US9522886B2, “Pyridine derivatives” (Hoffmann-La Roche Inc., priority 2012, dated 2016):
pEC50: −log10 of the molar value. Read-outs that look alike come from different tables or passages of the source.

Tests used:
human CB1 receptors = human CB1 receptors (Homo sapiens (Human), UniProt P21554); assay: cAMP assay, CHO cells expressing human CB1 receptors; type: cell-based
Experimental: (§1) CHO cells expressing human CB1 or CB2 receptors are seeded 17-24 hours prior to the experiment 50.000 cells per well in a black 96 well plate with flat clear bottom (Corning Costar #3904) in DMEM (Invitrogen No. 31331), 1×HT supplement, with 10% fetal calf serum and incubated at 5% CO2 and 37° C. in a humidified incubator. The growth medium was exchanged with Krebs Ringer Bicarbonate buffer with 1 mM IBMX and incubated at 30° C. for 30 min. Compounds were added to a final assay volume of 100 μl and incubated for 30 min at 30° C. Using the cAMP-Nano-TRF detection kit the assay (Roche Diagnostics) was stopped by the addition of 50 μl lysis reagent (Tris, NaCl, 1.5% Triton X100, 2.5% NP40, 10% NaN3) and 50 μl detection solutions (20 μM mAb Alexa700-cAMP 1:1, and 48 μM Ruthenium-2-AHA-cAMP) and shaken for 2 h at room temperature. The time-resolved energy transfer is measured by a TRF reader (Evotec Technologies GmbH), equipped with a ND:YAG laser as excitation source. The plate is measured twice with the excitation at 355 nm and at the emission with a delay of 100 ns and a gate of 100 ns, total exposure time 10 s at 730 (bandwidth 30 nm) or 645 nm (bandwidth 75 nm), respectively.
(§2) EC50 values were determined using Activity Base analysis (ID Business Solution, Limited).

human CB2 receptors = human CB2 receptors (Homo sapiens (Human), UniProt P34972); assay: cAMP assay, CHO cells expressing human CB2 receptors; type: cell-based; conditions: functional cAMP assay, CHO cells expressing human CB2; read-out: human CB2 EC50
Experimental: as §1, §2

[1] = functional cAMP assay, CHO cells expressing human CB1, read-out: human CB1 EC50

Sequence of human CB2 receptors (P34972 whole entry): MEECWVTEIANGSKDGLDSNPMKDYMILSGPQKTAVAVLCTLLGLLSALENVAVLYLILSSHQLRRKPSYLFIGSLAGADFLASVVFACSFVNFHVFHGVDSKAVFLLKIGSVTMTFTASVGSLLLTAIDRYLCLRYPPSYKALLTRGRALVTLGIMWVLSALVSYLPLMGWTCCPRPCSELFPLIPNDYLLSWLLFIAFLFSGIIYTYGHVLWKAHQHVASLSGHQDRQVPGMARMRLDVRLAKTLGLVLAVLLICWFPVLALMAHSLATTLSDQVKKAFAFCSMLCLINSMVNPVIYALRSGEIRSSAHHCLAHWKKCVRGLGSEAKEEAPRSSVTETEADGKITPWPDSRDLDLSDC
Sequence of human CB1 receptors (P21554 whole entry): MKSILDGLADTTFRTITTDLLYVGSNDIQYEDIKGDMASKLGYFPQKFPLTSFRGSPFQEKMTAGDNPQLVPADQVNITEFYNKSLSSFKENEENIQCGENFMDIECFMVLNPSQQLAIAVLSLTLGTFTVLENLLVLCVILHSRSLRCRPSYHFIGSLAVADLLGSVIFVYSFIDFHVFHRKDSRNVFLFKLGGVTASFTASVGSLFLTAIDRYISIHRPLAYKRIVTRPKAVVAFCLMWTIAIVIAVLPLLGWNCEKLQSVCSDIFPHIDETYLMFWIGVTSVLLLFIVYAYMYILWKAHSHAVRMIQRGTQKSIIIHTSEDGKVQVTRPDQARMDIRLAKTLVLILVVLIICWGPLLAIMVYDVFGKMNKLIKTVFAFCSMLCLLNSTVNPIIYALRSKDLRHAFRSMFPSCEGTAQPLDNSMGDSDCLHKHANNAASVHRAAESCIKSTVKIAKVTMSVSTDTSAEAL

| SMILES | pEC50 (human CB1 receptors) | pEC50 (human CB2 receptors) | pEC50 (human CB1 receptors; [1]) |
| --- | --- | --- | --- |
| NC(=O)[C@@H]1CCCC[C@@H]1NC(=O)c1ccc(C2CC2)c(OCC2CC2)n1 (relative stereo) [Example 12, 5-Cyclopropyl-6-cyclopropylmethoxy-pyridine-2-carboxylic acid (rel-(1S,2R)-2-carbamoyl-cyclohexyl)-amide] | < 5.00 |  |  |
| CCCCC(CC(N)=O)NC(=O)c1ccc(C2CC2)c(OCC2CC2)n1 (single isomer, unassigned; (+)) [Example 10, (+)-5-Cyclopropyl-6-cyclopropylmethoxy-pyridine-2-carboxylic acid (1-carbamoylmethyl-pentyl)-amide] |  | 9.52 |  |
| NC(=O)CC(NC(=O)c1ccc(C2CC2)c(OCC2CC2)n1)C1CCCCC1 (single isomer, unassigned; (+)) [Example 18, (+)-5-Cyclopropyl-6-cyclopropylmethoxy-pyridine-2-carboxylic acid (2-carbamoyl-1-cyclohexyl-ethyl)-amide] |  | 8.82 | < 5.00 |
| NC(=O)CC(NC(=O)c1ccc(C2CC2)c(OCC2CC2)n1)C1CC1 (single isomer, unassigned; (+)) [Example 28, (+)-5-Cyclopropyl-6-cyclopropylmethoxy-pyridine-2-carboxylic acid (2-carbamoyl-1-cyclopropyl-ethyl)-amide] |  | 8.52 | < 5.00 |
| NC(=O)CC(NC(=O)c1ccc(C2CC2)c(OCC2CC2)n1)C(F)(F)F (single isomer, unassigned; (+)) [Example 32, (+)-5-Cyclopropyl-6-cyclopropylmethoxy-pyridine-2-carboxylic acid (1-carbamoylmethyl-2,2,2-trifluoro-ethyl)-amide] |  | 6.86 | < 5.00 |
| NC(=O)CC(NC(=O)c1ccc(N2CC(F)(F)C2)c(OCC2CC2)n1)C1CCOCC1 (single isomer, unassigned; (+)) [Example 59, (+)-6-Cyclopropylmethoxy-5-(3,3-difluoro-azetidin-1-yl)-pyridine-2-carboxylic acid [2-carbamoyl-1-(tetrahydro-pyran-4-yl)-ethyl]-amide] |  |  | < 5.00 |
| CCCCC(CC(N)=O)NC(=O)c1ccc(C2CC2)c(OCC2CC2)n1 (single isomer, unassigned; (-)) [Example 9, (−)-5-Cyclopropyl-6-cyclopropylmethoxy-pyridine-2-carboxylic acid (1-carbamoylmethyl-pentyl)-amide] |  | 8.68 |  |
| NC(=O)CC(NC(=O)c1ccc(C2CC2)c(OCC2CC2)n1)C1CCCCC1 (single isomer, unassigned; (-)) [Example 17, (−)-5-Cyclopropyl-6-cyclopropylmethoxy-pyridine-2-carboxylic acid (2-carbamoyl-1-cyclohexyl-ethyl)-amide] |  | 8.21 | < 5.00 |
| NC(=O)CC(NC(=O)c1ccc(C2CC2)c(OCC2CC2)n1)C1CC1 (single isomer, unassigned; (-)) [Example 27, (−)-5-Cyclopropyl-6-cyclopropylmethoxy-pyridine-2-carboxylic acid (2-carbamoyl-1-cyclopropyl-ethyl)-amide] |  | 8.85 | < 5.00 |
| NC(=O)CC(NC(=O)c1ccc(C2CC2)c(OCC2CC2)n1)C(F)(F)F (single isomer, unassigned; (-)) [Example 31, (−)-5-Cyclopropyl-6-cyclopropylmethoxy-pyridine-2-carboxylic acid (1-carbamoylmethyl-2,2,2-trifluoro-ethyl)-amide] |  | 8.06 | < 5.00 |
| NC(=O)CC(NC(=O)c1ccc(C2CC2)c(OCC2CC2)n1)C1CCOCC1 (single isomer, unassigned; (-)) [Example 34, (−)-5-Cyclopropyl-6-cyclopropylmethoxy-pyridine-2-carboxylic acid [2-carbamoyl-1-(tetrahydro-pyran-4-yl)-ethyl]-amide] |  | 8.66 | < 5.00 |
| NC(=O)CC(NC(=O)c1ccc(N2CC(F)(F)C2)c(OCC2CC2)n1)C1CCOCC1 (single isomer, unassigned; (-)) [Example 58, (−)-6-Cyclopropylmethoxy-5-(3,3-difluoro-azetidin-1-yl)-pyridine-2-carboxylic acid [2-carbamoyl-1-(tetrahydro-pyran-4-yl)-ethyl]-amide] |  |  | < 5.00 |
| NC(=O)[C@@H]1CCCC[C@@H]1NC(=O)c1ccc(C2CC2)c(OCC2CC2)n1 (stereo in doubt) [Example 15, (+)-cis-5-Cyclopropyl-6-cyclopropylmethoxy-pyridine-2-carboxylic acid (2-carbamoyl-cyclohexyl)-amide] | < 5.00 |  |  |
| NC(=O)[C@H]1CCCC[C@@H]1NC(=O)c1ccc(C2CC2)c(OCC2CC2)n1 (stereo in doubt) [Example 16, (−)-trans-5-Cyclopropyl-6-cyclopropylmethoxy-pyridine-2-carboxylic acid (2-carbamoyl-cyclohexyl)-amide] |  |  | 6.77 |
| NC(=O)[C@@H]1CCCC[C@@H]1NC(=O)c1ccc(N2CC(F)(F)C2)c(OCC2CC2)n1 (stereo in doubt) [Example 20, (+)-cis-6-Cyclopropylmethoxy-5-(3,3-difluoro-azetidin-1-yl)-pyridine-2-carboxylic acid (2-carbamoyl-cyclohexyl)-amide] |  | 7.80 | < 5.00 |
| CCOC(=O)CC1(NC(=O)c2ccc(C3CC3)c(OCC3CC3)n2)COC1 [Example 1, {3-[(5-Cyclopropyl-6-cyclopropylmethoxy-pyridine-2-carbonyl)-amino]-oxetan-3-yl}-acetic acid ethyl ester] |  | 7.27 | < 5.00 |
| CC(C)CC(CC(=O)OC(C)(C)C)NC(=O)c1ccc(N2CC(F)(F)C2)c(OCC2CC2)n1 (stereo not drawn) [Example 2, tert-Butyl 3-({[6-(cyclopropylmethoxy)-5-(3,3-difluoroazetidin-1-yl)pyridin-2-yl]carbonyl}amino)-5-methylhexanoate] |  | 6.17 | < 5.00 |
| CN1CC(NC(=O)c2ccc(N3CC(F)(F)C3)c(OCC3CC3)n2)CC1=O (stereo not drawn) [Example 3, 6-Cyclopropylmethoxy-5-(3,3-difluoro-azetidin-1-yl)-pyridine-2-carboxylic acid (1-methyl-5-oxo-pyrrolidin-3-yl)-amide] |  |  | < 5.00 |
| CCOC(=O)CC(NC(=O)c1ccc(N2CC(F)(F)C2)c(OCC2CC2)n1)c1ccccc1 (stereo not drawn) [Example 4, 3-{[6-Cyclopropylmethoxy-5-(3,3-difluoro-azetidin-1-yl)-pyridine-2-carbonyl]-amino}-3-phenyl-propionic acid ethyl ester] |  | 8.38 | < 5.00 |
| CCOC(=O)CC(C)(C)NC(=O)c1ccc(N2CC(F)(F)C2)c(OCC2CC2)n1 [Example 5, 3-{[6-Cyclopropylmethoxy-5-(3,3-difluoro-azetidin-1-yl)-pyridine-2-carbonyl]-amino}-3-methyl-butyric acid ethyl ester] |  | 6.29 | < 5.00 |
| CNC(=O)CC(C)(C)NC(=O)c1ccc(N2CC(F)(F)C2)c(OCC2CC2)n1 [Example 6, 6-Cyclopropylmethoxy-5-(3,3-difluoro-azetidin-1-yl)-pyridine-2-carboxylic acid (1,1-dimethyl-2-methylcarbamoyl-ethyl)-amide] |  | 6.76 | < 5.00 |
| CCCCCC(CC(=O)NC)NC(=O)c1ccc(N2CC(F)(F)C2)c(OCC2CC2)n1 (stereo not drawn) [Example 7, 6-Cyclopropylmethoxy-5-(3,3-difluoro-azetidin-1-yl)-pyridine-2-carboxylic acid (1-methylcarbamoylmethyl-hexyl)-amide] |  | 7.25 | < 5.00 |
| CNC(=O)CC(CCc1ccccc1)NC(=O)c1ccc(N2CC(F)(F)C2)c(OCC2CC2)n1 (stereo not drawn) [Example 8, 6-Cyclopropylmethoxy-5-(3,3-difluoro-azetidin-1-yl)-pyridine-2-carboxylic acid (1-methylcarbamoylmethyl-3-phenyl-propyl)-amide] |  | 6.52 | < 5.00 |
| CC(C)[C@@H](CC(N)=O)NC(=O)c1ccc(C2CC2)c(OCC2CC2)n1 [Example 13, 5-Cyclopropyl-6-cyclopropylmethoxy-pyridine-2-carboxylic acid ((R)-1-carbamoylmethyl-2-methyl-propyl)-amide] |  | 8.30 |  |
| CC(C)[C@H](CC(N)=O)NC(=O)c1ccc(C2CC2)c(OCC2CC2)n1 [Example 14, 5-Cyclopropyl-6-cyclopropylmethoxy-pyridine-2-carboxylic acid ((S)-1-carbamoylmethyl-2-methyl-propyl)-amide] |  | 8.82 |  |
| NC(=O)CC(NC(=O)c1ccc(N2CC(F)(F)C2)c(OCC2CC2)n1)C1CCOCC1 (stereo not drawn) [Example 53, 6-Cyclopropylmethoxy-5-(3,3-difluoro-azetidin-1-yl)-pyridine-2-carboxylic acid [2-carbamoyl-1-(tetrahydro-pyran-4-yl)-ethyl]-amide] |  |  | < 5.00 |
| NC(=O)CC1(NC(=O)c2ccc(N3CC(F)(F)C3)c(OCC3CC3)n2)CSC1 [Example 91, N-[3-(2-Amino-2-oxoethyl)thietan-3-yl]-6-(cyclopropylmethoxy)-5-(3,3-difluoroazetidin-1-yl)pyridine-2-carboxamide] |  |  | < 5.00 |
